Measurements reported in patent US8901313B2, “6,5-heterocyclic propargylic alcohol compounds and uses therefor” (Genentech, Inc., priority 2011, dated 2014).

Columns and labels:
[1] = tested on: human embryonic kidney 293 cells; experiment: 293-NIK TK Renilla Luciferase reporter (general measure of cell viability); format: cell-based; details: HEK293, 293 cells, constitutive Renilla luciferase, 24 hours, read-out: inhibitory value (IC50) for 293-NIK TK Renilla Luciferase activity
Source text: (1) The first assay was used to profile whether a test compound can inhibit the NF-kB signally through NIK inhibition without affecting cell viability. In this assay, human embryonic kidney 293 cells was stably transfected with a tetracycline-inducible NIK DNA construct containing a cytomegalovirus promoter plus two reporter DNA constructs. One reporter encoded firefly luciferase under the control of three repeats of an NF-kB response element from the ELAM-1 gene and reflects the level of NIK activity in the cells, whereas the other reporter constitutively expressed Renilla luciferase under the control of the herpes simplex virus thymidine kinase promoter and served as a general measure of cell viability. Cells were incubated with different concentrations of compounds (0.2% DMSO final) in medium containing 1 ug/mL doxycycline and 10% tet-system approved fetal bovine serum (Clontech) for 24 hours, after which the reporters' signals were detected using the Dual Glo luciferase detection system (Promega) according to the vendor's protocol. The compounds listed in Table 1 have the corresponding inhibitory value (IC50 in micromolar) for 293-NIK NF-kB-Luciferase activity (values for compounds are presented in the same order as found in Table 1): na, 0.059, na, na, na, 0.105, 0.027, na, 20, 1.2, na, 1.8, 0.0231, 0.879, 0.0361, 0.582, na, 0.142, na, 0.403, 0.059, 0.0331, na, na, 0.0573, 1.5, na, na, 0.0722, na, na, 0.589, 12.7, 3.7, 14.9, na, 0.707, 1, 0.0311, 0.332, 0.309, 0.0142, 0.051, 2.8, 0.129, na, na, 1.5, na, na, na, 1.3, 0.062, 20, 0.31, 0.104, 0.091, 0.037, 0.085, 0.279, na, 0.305, 0.064, 0.332, 0.133, 0.168, 0.217, 0.553, na and na.
The compounds in listed in Table 1 have the corresponding inhibitory value (IC50 in micromolar) for 293-NIK TK Renilla Luciferase activity: (values for compounds are presented in the same order as found in Table 1): 6.4, 3.6, 20, na, 1.6, 9.3, 18.5, na, na, 2.6, na, na, na, na, na, na, na, na, na, na, na, na, na, na, na, na, na, na, na, na, na, na, na, na, na, na, na, na, na, na, na, na, na, na, na, na, na, >20, na, na, na, 20, >20, 17, 1.3, 15.6, 0.967, 2.7, 11.2, 5.1, na, 20, 20, 20, 20, 20, 17.6, 20, na and na.

[2] = tested on: p52 (NF-kB2) nuclear translocation in HeLa cells; experiment: NIK p52 Translocation Assay (non-classical NF-kB signaling); format: cell-based; details: Homo sapiens; HeLa cells, 100 ng/mL anti-lymphotoxin beta receptor antibody, 5 hours; read-out: inhibitory value (IC50) for NIK p52 Translocation Assay
Procedure, shortened: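 HeLa cells in 10% FBS medium were exposed to compound (0.2% DMSO final) and stimulated with 100 ng/mL anti-lymphotoxin β receptor antibody for 5 h. Fixed cells were immunostained for p52 with DRAQ5 counterstain and imaged by high-content imaging. IC50 from nuclear/cytoplasmic p52 signal ratio vs concentration.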

[3] = target: T1, nuclear factor-kappa B (NF-kB)-inducing kinase (NIK) (Homo sapiens, UniProt Q99558); experiment: NIK Enzyme Inhibition Assay (Transcreener ADP assay); format: biochemical; details: purified NIK 0.2-1 nM, 10 uM ATP, fluorescence polarization, Morrison's quadratic equation; read-out: inhibitory value (Ki) for NIK
T1 construct: made in house; host or cells: baculovirus-infected insect cells
T1 sequence (Q99558 whole entry): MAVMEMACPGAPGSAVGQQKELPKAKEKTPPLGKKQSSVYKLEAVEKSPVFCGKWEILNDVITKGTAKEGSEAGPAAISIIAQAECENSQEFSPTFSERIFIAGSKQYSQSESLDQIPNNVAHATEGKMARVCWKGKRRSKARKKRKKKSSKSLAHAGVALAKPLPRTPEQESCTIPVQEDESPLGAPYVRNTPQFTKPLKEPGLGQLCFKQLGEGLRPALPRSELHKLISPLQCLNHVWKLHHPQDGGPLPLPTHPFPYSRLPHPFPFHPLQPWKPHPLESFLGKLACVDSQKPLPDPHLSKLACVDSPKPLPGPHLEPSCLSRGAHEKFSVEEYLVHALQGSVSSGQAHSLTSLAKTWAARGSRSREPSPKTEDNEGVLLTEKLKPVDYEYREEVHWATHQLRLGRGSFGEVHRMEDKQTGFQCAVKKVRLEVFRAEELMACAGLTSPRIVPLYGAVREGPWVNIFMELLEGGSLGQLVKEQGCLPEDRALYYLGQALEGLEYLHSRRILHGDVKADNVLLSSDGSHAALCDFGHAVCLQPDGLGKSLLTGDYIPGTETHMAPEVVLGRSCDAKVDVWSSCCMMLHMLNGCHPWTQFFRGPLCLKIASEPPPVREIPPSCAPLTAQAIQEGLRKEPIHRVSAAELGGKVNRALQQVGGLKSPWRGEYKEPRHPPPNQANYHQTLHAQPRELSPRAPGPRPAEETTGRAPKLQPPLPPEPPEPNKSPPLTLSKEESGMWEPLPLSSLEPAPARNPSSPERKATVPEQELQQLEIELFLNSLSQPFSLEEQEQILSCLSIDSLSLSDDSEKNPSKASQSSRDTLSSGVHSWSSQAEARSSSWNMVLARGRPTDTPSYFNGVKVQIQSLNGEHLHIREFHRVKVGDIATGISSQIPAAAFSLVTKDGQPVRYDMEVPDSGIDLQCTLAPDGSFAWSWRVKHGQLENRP

[4] = tested on: REL-A (p65) nuclear translocation in HeLa cells; experiment: NIK RelA Translocation Assay (classical NF-kB signaling); format: cell-based; details: Homo sapiens; HeLa cells, compounds 4.5 hours, 10 ng/mL TNF-α 30 minutes; read-out: inhibitory value (IC50) for NIK RelA Translocation Assay
Procedure, shortened: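 HeLa cells in 10% FBS medium were preincubated 4.5 h with compound (0.2% DMSO final), then stimulated with 10 ng/mL TNF-α for 30 min. After fixation, anti-REL-A (p65) immunostaining and DRAQ5 nuclear stain, high-content imaging gave the nuclear/cytoplasmic intensity ratio; IC50 from signal versus concentration.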

[5] = tested on: NF-kB signaling through NIK in human embryonic kidney 293 cells; experiment: 293-NIK NF-kB-Luciferase reporter assay; format: cell-based; details: HEK293, 293 cells with tetracycline-inducible NIK, 1 ug/mL doxycycline, 24 hours, read-out: inhibitory value (IC50) for 293-NIK NF-kB-Luciferase activity
Procedure, shortened: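 HEK293 cells stably carrying tetracycline-inducible NIK plus NF-kB (ELAM-1 element) firefly luciferase and constitutive TK-Renilla viability reporter. Compounds (0.2% DMSO) incubated 24 h with 1 ug/mL doxycycline; Dual Glo luminescence read, IC50 from firefly signal.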

In the case of `Cc1cc(C(C)(O)C#Cc2ccc3nc(C4CC4)n(-c4ncnc(N)n4)c3c2)no1` (centres unmarked) [Example T1-60, 4-(1-(4-amino-1,3,5-triazin-2-yl)-2-cyclopropyl-1H-benzo [d]imidazol-6-yl)-2-(5-methyl-isoxazol-3-yl)but-3-yn-2-ol], the IC50 [1] is reported as 5100 nM, the IC50 [2] is reported as 552 nM and the Ki [3] is reported as 2.2 nM. For the same compound, the IC50 [4] was 1000 nM and the IC50 [5] was 279 nM.
